Results reported in US12600729B2, “New-type benzazepine fused ring derivative” (SHANGHAI JEYOU PHARMACEUTICAL CO., LTD., priority 2021, dated 2026).
Where two headings read alike, the source gives them in different places.

What was measured:
[1] = In vivo pharmacokinetics in mice, oral administration; conditions: male CD1 mice, oral 10 mg/kg; for AUC(0-inf) / Cmax / half-life: mouse, plasma
Method: In this experimental example, in vivo pharmacokinetic evaluations were performed on mice by intravenous injection and oral administration.
Experimental methods and conditions: Male CD1 mice, 6 to 8 weeks old with free access to food and water, were administered by oral gavage with a dosage of 10 mg/kg (solvent 5% DMSO/10% Solutol/85% Saline). 15 minutes, 30 minutes, 1 hour, 2 hours, 4 hours, 8 hours, 10 hours, 24 hours after administration, blood samples were collected. Each sample was collected in a volume of 150 μL and anticoagulated with heparin sodium, placed on ice after collection, and centrifuged within 1 hour to separate the test plasma. The plasma concentration in plasma was tested by liquid chromatography-tandem mass spectrometry (LC/MS/MS), and pharmacokinetic parameters were calculated using Phoenix WinNonlin software via the measured concentration.

LLC-PK1 cells = assay: AVP-induced LLC-PK1 cell proliferation assay; assay type: cell-based, Porcine; design: Proliferation inhibition grading, Repeated experiment I / Proliferation inhibition grading, Repeated experiment II: key to the marks not given beside the values; conditions: for Proliferation inhibition grading, Repeated experiment I / Proliferation inhibition grading, Repeated experiment II: LLC-PK1, AVP 10 nM, verapamil 5 μM, graded against Tolvaptan; for hook effect in AVP-induced LLC-PK1 cell proliferation: high concentration, up to 3 μM
Method: Porcine renal epithelial cell LLC-PK1: purchased from ATCC, Cat #CL-101 The pathogenesis of polycystic kidney disease is related to the low intracellular calcium ion concentration of renal collecting duct epithelial cells and the cAMP-dependent excessive proliferation of cells. […] LLC-PK1 cells were incubated with M199 medium supplemented with 10% fetal bovine serum under the condition of 37° C. and 5% CO2. On the first day of the experiment, a 96-well plate was coated with 0.01% Poly-D-lysine, then each well of the plate was added with 100 μL of the above mixture. After standing at room temperature for 10 minutes, the mixture in each well was aspirated and air-dried at room temperature for 1 hour, and washed once with 200 μL 1×PBS for further use. LLC-PK1 cells were digested with trypsin, resuspended with serum-free M199 after centrifugation, counted, diluted into 1×10^5/mL cell suspension with serum-free M199 medium, and added with FBS until 1% final concentration. To a 96-well plate was transfered 200 μL of cell suspension/well. After the cells were incubated for 24 hours, the supernatant of the formulated solution was aspirated, and the cells were washed once with 200 μL of PBS. Then 160 μL of M199 medium containing 0.05% FBS and 20 μL of 10×Verapamil (final concentration of 5 μM) were sequentially added thereto, and the culture was continued for 24 hours. To the corresponding wells was respectively added 10 μL of various concentrations of the test compound (final concentration starting from 3 μM, 3-fold dilution, 8 concentration gradients) or DMSO (Min, and Max as a control) on the third day. […] On the fifth day, the culture medium was carefully aspirated. The cells were washed once with 200 μL of PBS. 90 μL of M199 serum-free medium was carefully added thereto, and then 10 μL of Alamarblue reagent was added thereto. The mixture was centrifuged at 300 rpm for 1 minute, incubated at 37° C. for 2 hours, and then tested. SpectraMax instrument was used for the sample test. The excitation light was 560 nm, and the emission light was 595 nm. Each test sample was tested in triplicate, with 6 replicates for both Min and Max, respectively. The concentration of the compound was taken as the X value, and the average value of the fluorescence intensity of each experimental well sample minus the fluorescence intensity of the background well was taken as the Y value, which represented the number of living cells in the well at the time of testing. The Grouped-Summary data-Separated bar graph in GraphPad Prism 8.0 software was used to make a bar chart for reflecting the dose-effect relationship of different compounds on AVP-induced cell proliferation. […] Data quality control: […]

human V1bR = target: T1, human V1bR (Homo sapiens, UniProt P47901); assay: Competitive isotope ligand binding, V1b receptor
T1 construct: purchased Perkinelmer, USA
T1 sequence (P47901 1-424): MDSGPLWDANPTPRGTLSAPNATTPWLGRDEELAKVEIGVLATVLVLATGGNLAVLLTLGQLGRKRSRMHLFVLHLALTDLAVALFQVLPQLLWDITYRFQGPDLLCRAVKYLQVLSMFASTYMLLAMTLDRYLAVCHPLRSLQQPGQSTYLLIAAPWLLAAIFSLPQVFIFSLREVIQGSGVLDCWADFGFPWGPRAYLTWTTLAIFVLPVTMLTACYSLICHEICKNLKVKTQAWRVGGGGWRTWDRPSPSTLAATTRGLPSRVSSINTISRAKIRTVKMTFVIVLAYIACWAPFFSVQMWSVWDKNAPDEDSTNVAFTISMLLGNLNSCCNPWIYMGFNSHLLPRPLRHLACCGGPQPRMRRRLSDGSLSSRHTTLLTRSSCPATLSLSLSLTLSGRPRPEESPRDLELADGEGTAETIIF
Method: (§1) The cells with high expression of human V1a receptor were amplified, collected, washed twice with PBS, resuspended with PBS containing a protease inhibitor, homogenized with a homogenizer at 15000 r/min to break the cells, and centrifuged at 4° C. and 3000 r/min for 15 minutes. The supernatant was collected, centrifuged at 20,000 r/min at 4° C. for 45 minutes. Then the supernatant was discarded to obtain a cell membrane precipitation. Buffer was added to resuspend to measure the protein concentration, aliquoted, and stored at −80° C. The cell membranes of highly expressed human V1b and V2 receptors were purchased from Perkinelmer, USA.
(§2) The stock solution of the test compound and that of the positive control were diluted to 1 mM (10-fold dilution) and 0.1 mM (100-fold dilution) with DMSO, respectively, and then sequentially subjected to a four-fold dilution with DMSO to the tenth point.
(§3) Cell membranes overexpressing human receptors were prepared with assay buffer to 5 mg/mL.
(§4) • 1. 1 μL of the compound was aspirated from the dilution plate into each well of the 96-well assay plate (the concentration of the test compound in the reaction would be diluted 100-fold). To the control well was added 1 μL of DMSO. • 2. 10 mL of membrane solution containing 5 μg/μL was prepared. • 3. To the compound assay plate was added the membrane solution from step 2 with a pipette, and each well was added with 89 μL of the membrane solution. • 4. […] The configured test plate was placed at 30° C. and incubated for 60 minutes. • 6. The membrane complexes were collected into 0.5% PEI pre-coated GF/B plate with Cell Harvester, washed 3 times with 2 mL of pre-cooled elution buffer at 4° C., and dried at 37° C. for 2 hours. • 7.
(§5) Y=Bottom+(Top−Bottom)/(1+10^((X−Log IC50))), wherein: Y is the reading value of the liquid scintillation counter, and X is the logarithmic value of the compound concentration.

[2] = target: T2, human vasopressin receptor V2R (Homo sapiens, UniProt P30518); assay: Inhibition of vasopressin-induced activation of V2R (cAMP HTRF in HeLa-V2R cells); assay type: cell-based; conditions: AVP 2.25 nM, read-out: IC50, inhibition of cAMP increase in human cervical cancer cells (Human V2R Hela-Stable cell line OE2)
T2 construct: host or cells: HeLa (lentivirus infection, puromycin selection)
Method: HeLa-V2R cells were incubated with DMEM medium supplemented with 10% fetal bovine serum under the condition of 37° C. and 5% CO2, and the medium was added with 2 μg/mL puromycin to continuously screen cells expressing V2R. On the day of the experiment, the cells were digested with trypsin, washed twice with the stimulation buffer in the cAMP-GS HIRANGE kit, resuspended, and counted to prepare 1.6×10^6 cells/mL, and IBMX was added until a final concentration of 0.5 mM. 5 μL of cell suspension/well was transferred to a 384-well plate. To the corresponding wells were added 2.5 μL of various concentrations of the test compounds (3-fold dilution from 10 μM, 10 concentration gradients) or DMSO (minimum value Min, maximum value Max as a control), respectively. […]. At the same time, cAMP standard samples (3-fold dilution from 5.6 μM, 10 concentration points) were prepared, and 10 μL of cAMP standard samples were transferred to corresponding wells of a 384-well plate. The cAMP-d2 fluorescence and anti-cAMP antibody probes provided in the kit were 20-fold diluted by the lysis buffer in the cAMP-GS HIRANGE kit. To each well of a 384-well plate was sequentially added 5 μL of each diluted reagent. The above mixture in each well was mixed well, centrifuged briefly, incubated at 25° C. for 2 hours, and tested. The sample was tested by the HTRF method with the Envision microplate reader to determine the fluorescence intensity at 615 nm and 665 nm. Each test sample was tested in duplicate, with 32 replicates for both Min and Max, respectively.
The fluorescence intensity ratio FI665/615 at the wavelength of 665 nm and 615 nm of the samples in each well was calculated. The logarithm of the concentration of the standard was taken as X, and FI665/615×1000 as the Y value, and the standard curve was obtained by fitting the “log(inhibitor) vs response-variable slope (four parameters)” model in Prism 8.0 software. FI665/615×1000 of the test well was taken as the Y value, and the cAMP concentration corresponding to each sample was calculated in the Prism 8.0 software according to the above standard curve.
% Inhibition (inhibition percentage) calculation formula is as follows: % inhibition=(Cmax−Ccmpd)/(Cmax−Cmin)×100
wherein Cmax is the average calculated value of cAMP concentration in all maximum wells; Cmin is the average calculated value of cAMP concentration in all minimum wells; Ccmpd is the calculated value of cAMP concentration of the test compound.
% Inhibition (inhibition percentage) was taken as the Y value, and the logarithmic value of the compound concentration was taken as the X value, and the IC50 was calculated by nonlinear regression with “log(inhibitor) vs response-variable slope (four parameters)” model in Prism 8.0 software, wherein Y=Bottom+(Top−Bottom)/(1+10^((Log IC50−X)×Hill Slope)).

human V1aR = target: T3, human V1aR (Homo sapiens, UniProt P37288); assay: Competitive isotope ligand binding, V1a receptor
T3 construct: expressed in transfected cells; membranes prepared in house
Method: as §1, §2, §3, §4, §5

human V2R = target: T4, human V2R (Homo sapiens, UniProt P30518); assay: Competitive isotope ligand binding, V2 receptor
T4 construct: purchased Perkinelmer, USA
Method: as §1, §2, §3, §4, §5

[3] = read-out: Binding affinity V1bR, N = 2, isotope-labeled vasopressin […], experiment 2, bound printed in μM

T4 sequence (P30518 whole entry): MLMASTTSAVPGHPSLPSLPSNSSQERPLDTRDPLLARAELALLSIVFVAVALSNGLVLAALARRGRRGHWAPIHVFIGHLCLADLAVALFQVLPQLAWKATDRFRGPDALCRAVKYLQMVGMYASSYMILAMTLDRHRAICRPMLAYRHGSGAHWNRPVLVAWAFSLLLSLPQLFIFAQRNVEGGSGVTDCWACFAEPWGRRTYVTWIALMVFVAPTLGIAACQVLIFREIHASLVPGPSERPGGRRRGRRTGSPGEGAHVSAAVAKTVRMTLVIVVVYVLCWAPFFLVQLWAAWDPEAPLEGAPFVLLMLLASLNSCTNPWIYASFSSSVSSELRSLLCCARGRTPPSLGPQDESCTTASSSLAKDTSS
T2 sequence (P30518 whole entry): as above
T3 sequence (P37288 whole entry): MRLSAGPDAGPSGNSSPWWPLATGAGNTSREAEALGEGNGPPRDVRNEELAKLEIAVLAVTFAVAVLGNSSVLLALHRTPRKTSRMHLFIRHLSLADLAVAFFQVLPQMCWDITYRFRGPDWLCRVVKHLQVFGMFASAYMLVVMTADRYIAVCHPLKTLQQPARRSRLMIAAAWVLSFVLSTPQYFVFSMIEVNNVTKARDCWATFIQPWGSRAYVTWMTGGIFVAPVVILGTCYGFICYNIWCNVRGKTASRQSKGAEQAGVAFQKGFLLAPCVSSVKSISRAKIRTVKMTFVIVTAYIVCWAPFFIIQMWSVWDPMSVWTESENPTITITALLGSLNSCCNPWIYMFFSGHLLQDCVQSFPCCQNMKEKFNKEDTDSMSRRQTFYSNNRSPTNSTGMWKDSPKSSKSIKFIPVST

`Cc1ccccc1C(=O)Nc1ccc(C(=O)N2CCCC(O)c3cc(Cl)ccc32)c(C)c1` (stereo not drawn) [Reference substance 1, Tolvaptan, reference compound] showed an F [1] of 44%, an AUC(0-inf) [1] of 1610 ng·h/mL and a Cmax [1] of 1310 ng/mL. The half-life [1] was 1.58 h, the “Proliferation inhibition grading, Repeated experiment I” value (LLC-PK1 cells) was “++” and the “Proliferation inhibition grading, Repeated experiment II” value (LLC-PK1 cells) was “++”. For the same compound, the “hook effect in AVP-induced LLC-PK1 cell proliferation” value (LLC-PK1 cells) was “high-concentration pro-proliferative hook effect”, the IC50 (human V1bR) was > 10000 nM and the Ki (human V1bR; read-out: Binding affinity V1bR, N = 1, isotope-labeled vasopressin […], experiment 1, bound printed in μM) was > 10 µM. For the same compound, the Ki (human V1bR; [3]) was > 10 µM and the Ki (human V1bR; read-out: Binding affinity V1bR, summary of the two experiments) was > 10 µM.

In the case of `CN1CCC2CCN(C(=O)c3ccc(NC(=O)c4ccccc4C(F)(F)F)nc3)c3ccc(Cl)cc3[C@H]21` (stereo partly drawn) [Compound 3A], the IC50 [2] is reported as 84.7 nM.

Work on `Cc1ccccc1C(=O)Nc1ccc(C(=O)N2CCC3CCOC3c3cc(Cl)ccc32)c(C)c1` (single isomer, unassigned) [Compound 4] yielded an IC50 [2] of 7.45 nM.

`Cc1ccccc1C(=O)Nc1ccc(C(=O)N2CCC3CCOC3c3cc(Cl)ccc32)c(C)c1` (single isomer, unassigned) [Compound 5] gave an IC50 [2] of 61.6 nM.

With `O=C(Nc1ccc(C(=O)N2CC[C@@H]3CCN[C@H]3c3cc(Cl)ccc32)cn1)c1ccccc1C(F)(F)F` (single isomer, unassigned) [Compound 10A] the IC50 [2] was 31 nM, the F [1] was 73.34% and the AUC(0-inf) [1] was 2030 ng·h/mL. The Cmax [1] was 833 ng/mL, the half-life [1] was 4.44 h and the “Proliferation inhibition grading, Repeated experiment I” value (LLC-PK1 cells) was “+++”. The “Proliferation inhibition grading, Repeated experiment II” value (LLC-PK1 cells) was “+++”, the Ki (human V1aR; Binding affinity V1aR, N = 1, isotope-labeled vasopressin […], experiment 1) was 19.7 nM and the Ki (human V1aR; Binding affinity V1aR, N = 2, isotope-labeled vasopressin […], experiment 2) was 11.1 nM. The Ki (human V1aR; isotope-labeled vasopressin […], mean ± spread, read-out: Binding affinity V1aR, mean of the two experiments) was 15.4 ± 4.3 nM, the IC50 (human V1bR) was > 10000 nM and the Ki (human V1bR) was > 10 µM. The Ki (human V1bR; isotope-labeled vasopressin […], bound given in μM, read-out: Binding affinity V1bR, summary of the two experiments) was > 10 µM, the Ki (human V1bR; [3]) was > 10 µM and the “binding affinity for V2R compared with V1a (V1a/V2 selectivity)” value (human V2R) was “higher than that for V1a”. For the same compound, the Ki (human V2R; Binding affinity V2R, N = 1, isotope-labeled vasopressin 1 nM, experiment 1) was 2.1 nM, the Ki (human V2R; Binding affinity V2R, N = 2, isotope-labeled vasopressin 1 nM, experiment 2) was 2.76 nM and the Ki (human V2R; isotope-labeled vasopressin 1 nM, mean ± spread, read-out: Binding affinity V2R, mean of the two experiments) was 2.4 ± 0.3 nM.

Work on `Cc1ccccc1C(=O)Nc1ccc(C(=O)N2CCC3COC3c3cc(Cl)ccc32)c(C)c1` (stereo not drawn) [Compound 6] yielded an IC50 [2] of 3.85 nM.

`O=C(Nc1ccc(C(=O)N2CCC3CCNC3c3cc(Cl)ccc32)cn1)c1ccccc1C(F)(F)F` (stereo not drawn) [Compound 2] showed an IC50 [2] of 32.6 nM.

`Cc1cc(NC(=O)c2ccccc2Cl)ccc1C(=O)N1CCC2CNC2c2cc(Cl)ccc21` (stereo not drawn) [Compound 7] showed an IC50 [2] of 92.7 nM.

For `Cc1ccccc1C(=O)Nc1ccc(C(=O)N2CCC3CCNC3c3cc(Cl)ccc32)c(C)c1` (stereo not drawn) [Compound 1], the IC50 [2] was 14.7 nM, the “dose-response compared with Tolvaptan” value (LLC-PK1 cells; AVP-induced LLC-PK1 cell proliferation) was “superior to that of Tolvaptan” and the “hook effect in AVP-induced LLC-PK1 cell proliferation” value (LLC-PK1 cells) was “no hook effect”.

In the case of `O=C(Nc1ccc(C(=O)N2CCC3CCNC3c3cc(Cl)ccc32)cn1)c1ccccc1C(F)(F)F` (stereo not drawn) [Compound 8], the IC50 [2] is reported as 69.5 nM.
